As a reminder, the IC50 is the concentration that inhibits the measured activity by half.

The assay concerns the target T1, menin protein (Homo sapiens, UniProt O00255).
T1 sequence (O00255 1-610): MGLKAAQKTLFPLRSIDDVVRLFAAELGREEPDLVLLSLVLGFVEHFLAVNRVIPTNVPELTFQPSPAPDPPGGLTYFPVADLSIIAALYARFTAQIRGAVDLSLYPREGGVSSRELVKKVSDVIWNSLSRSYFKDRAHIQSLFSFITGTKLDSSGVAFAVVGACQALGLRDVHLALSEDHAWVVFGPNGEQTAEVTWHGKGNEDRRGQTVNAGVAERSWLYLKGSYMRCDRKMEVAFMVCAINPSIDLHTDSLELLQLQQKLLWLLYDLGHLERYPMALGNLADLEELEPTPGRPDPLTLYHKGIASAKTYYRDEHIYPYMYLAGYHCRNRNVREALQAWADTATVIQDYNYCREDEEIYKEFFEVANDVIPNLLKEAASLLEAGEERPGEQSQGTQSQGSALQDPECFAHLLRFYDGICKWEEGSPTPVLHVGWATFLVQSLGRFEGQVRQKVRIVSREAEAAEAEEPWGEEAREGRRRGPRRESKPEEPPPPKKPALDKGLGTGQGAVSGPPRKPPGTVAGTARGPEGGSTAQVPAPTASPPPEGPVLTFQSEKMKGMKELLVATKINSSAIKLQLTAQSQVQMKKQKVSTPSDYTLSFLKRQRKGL
Nature of the assay: Fluorescence polarization (FP) competitive binding assay, menin binding affinity. The settings on record: FP competition with FAM-MM2 probe 2 nM, menin 4 nM, 30 minutes room temperature. As to the method:
A fluorescence polarization (FP) competitive binding assay was used to determine the binding affinities of representative menin inhibitors. A FAM labeled fluorescent probe was designed and synthesized based on a MLL1 peptide (FAM-MM2). Equilibrium dissociation constant (Kd) value of FAM-MM2 to menin protein was determined from protein saturation experiments by monitoring the total fluorescence polarization of mixtures composed with the fluorescent probe at a fixed concentration and the protein with increasing concentrations up to full saturation. Serial dilutions of the protein were mixed with FAM-MM2 to a final volume of 200 μl in the assay buffer (PBS with 0.02% Bovine γ-Globulin and 4% DMSO. 0.01% Triton X-100 was added right before assays). Final FAM-MM2 concentration was 2 nM. Plates were incubated at room temperature for 30 minutes with gentle shaking to assure equilibrium. FP values in millipolarization units (mP) were measured using the Infinite M-1000 plate reader (Tecan U.S., Research Triangle Park, N.C.) in Microfluor 1 96-well, black, v-bottom plates (Thermo Scientific, Waltham, Mass.) at an excitation wavelength of 485 nm and an emission wavelength of 530 nm.
The IC50 of representative Compounds of the Disclosure, see Table 3, were determined in a competitive binding experiment. Mixtures of 5 μl of the tested compounds in DMSO and 195 μl of preincubated protein/probe complex solution in the assay buffer were added into assay plates which were incubated at room temperature for 30 minutes with gentle shaking. Final concentration of the menin protein was 4 nM, and final probe concentration is 2 nM. Negative controls containing protein/probe complex only (equivalent to 0% inhibition), and positive controls containing only free probes (equivalent to 100% inhibition), were included in each assay plate. FP values were measured as described above. IC50 values were determined by nonlinear regression fitting of the competition curves.
(Polarisation of emitted light reports the rotation of a fluorescent probe.)

In the case of `COC(=O)N[C@H]1CCC[C@@H]1[C@](CN1CCC1)(c1cc(F)cc(F)c1)C1CCN(CC2(F)CN(c3ccc(S(=O)(=O)C4CN(C(=O)/C=C/CN(C)C)C4)cc3)C2)CC1` [Cpd. No. 11, methyl ((1S,2R)-2-((S)-2-(azetidin-1-yl)-1-(3,5-difluorophenyl)-1-(1-((1-(4-((1-((E)-4-(dimethylamino)but-2-enoyl)azetidin-3-yl)sulfonyl)phenyl)-3-fluoroazetidin-3-yl)methyl)piperidin-4-yl)ethyl)cyclopentyl)carbamate], the IC50 is 2 nM.
`C=CC(=O)N1CC(S(=O)(=O)c2ccc(N3CC(CN4CCC([C@@](CN5CCC5)(c5cccc(F)c5)[C@H]5CCC[C@@H]5NC(=O)OC)CC4)C3)cc2)C1` [Cpd. No. 14, methyl ((1S,2R)-2-((S)-1-(1-((1-(4-((1-acryloylazetidin-3-yl)sulfonyl)phenyl)azetidin-3-yl)methyl)piperidin-4-yl)-2-(azetidin-1-yl)-1-(3-fluorophenyl)ethyl)cyclopentyl)carbamate]: the IC50 is 2 nM.
`C#CC(=O)N1CC(S(=O)(=O)c2ccc(N3CC(CN4CCC([C@@](CN5CCC5)(c5cccc(F)c5)[C@H]5CCC[C@@H]5NC(=O)OC)CC4)C3)cc2)C1` [Cpd. No. 15, methyl ((1S,2R)-2-((S)-2-(azetidin-1-yl)-1-(3-fluorophenyl)-1-(1-((1-(4-((1-propioloylazetidin-3-yl)sulfonyl)phenyl)azetidin-3-yl)methyl)piperidin-4-yl)ethyl)cyclopentyl)carbamate]: the IC50 turned out to be 3 nM.
The same measure for `C=CC(=O)N1CC(S(=O)(=O)c2ccc(N3CC(F)(CN4CCC([C@@](CN5CCC5)(c5cccc(F)c5)[C@H]5CCC[C@@H]5NC(=O)OC)CC4)C3)cc2)C1` [Cpd. No. 16, methyl ((1S,2R)-2-((S)-1-(1-((1-(4-((1-acryloylazetidin-3-yl)sulfonyl)phenyl)-3-fluoroazetidin-3-yl)methyl)piperidin-4-yl)-2-(azetidin-1-yl)-1-(3-fluorophenyl)ethyl)cyclopentyl)carbamate]: 3 nM.
To `C=C(CN1CCC(O)CC1)C(=O)N1CC(S(=O)(=O)c2ccc(N3CC(CN4CCC([C@@](CN5CCC5)(c5cccc(F)c5)[C@H]5CCC[C@@H]5NC(=O)OC)CC4)C3)cc2)C1` [Cpd. No. 23, methyl ((1S,2R)-2-((S)-2-(azetidin-1-yl)-1-(3-fluorophenyl)-1-(1-((1-(4-((1-(2-((4-hydroxypiperidin-1-yl)methyl)acryloyl)azetidin-3-yl)sulfonyl)phenyl)azetidin-3-yl)methyl)piperidin-4-yl)ethyl)cyclopentyl)carbamate] belongs 2 nM; to `C=C(CN1CCOCC1)C(=O)N1CC(S(=O)(=O)c2ccc(N3CC(CN4CCC([C@](CN5CCC5)(c5cccc(F)c5)[C@H]5CCC[C@@H]5NC(=O)OC)CC4)C3)cc2)C1` [Cpd. No. 27, methyl ((1S,2R)-2-((R)-2-(azetidin-1-yl)-1-(3-fluorophenyl)-1-(1-((1-(4-((1-(2-(morpholinomethyl)acryloyl)azetidin-3-yl)sulfonyl)phenyl)azetidin-3-yl)methyl)piperidin-4-yl)ethyl)cyclopentyl)carbamate], 4 nM; to `C=C(CN1CCOCC1)C(=O)N1CC(S(=O)(=O)c2ccc(N3CC(CN4CCC([C@@](C#N)(c5cccc(F)c5)[C@H]5CCC[C@@H]5NC(=O)OC)CC4)C3)cc2)C1` [Cpd. No. 28, methyl ((1S,2R)-2-((S)-cyano(3-fluorophenyl)(1-((1-(4-((1-(2-(morpholinomethyl)acryloyl)azetidin-3-yl)sulfonyl)phenyl)azetidin-3-yl)methyl)piperidin-4-yl)methyl)cyclopentyl)carbamate], 2 nM.
The same measure for `C=C(CN1CCCCC1)C(=O)N1CC(S(=O)(=O)c2ccc(N3CC(CN4CCC([C@@](C#N)(c5cccc(F)c5)[C@H]5CCC[C@@H]5NC(=O)OC)CC4)C3)cc2)C1` [Cpd. No. 29, methyl ((1S,2R)-2-((S)-cyano(3-fluorophenyl)(1-((1-(4-((1-(2-(piperidin-1-ylmethyl)acryloyl)azetidin-3-yl)sulfonyl)phenyl)azetidin-3-yl)methyl)piperidin-4-yl)methyl)cyclopentyl)carbamate]: 2 nM; for `C=C(CN1CCOCC1)C(=O)N1CC(S(=O)(=O)c2cccc(N3CC(CN4CCC([C@@](CN5CCC5)(c5cccc(F)c5)[C@H]5CCC[C@@H]5NC(=O)OC)CC4)C3)c2)C1` [Cpd. No. 30, methyl ((1S,2R)-2-((S)-2-(azetidin-1-yl)-1-(3-fluorophenyl)-1-(1-((1-(3-((1-(2-(morpholinomethyl)acroyloyl)azetidin-3-yl)sulfonyl)phenyl)azetidin-3-yl)methyl)piperidin-4-yl)ethyl)cyclopentyl)carbamate]: 5 nM; for `COC(=O)N[C@H]1CCC[C@@H]1[C@@](CN1CCC1)(c1cccc(F)c1)C1CCN(CC2CN(c3ccc(S(=O)(=O)C4CN(C(=O)/C=C/CN5CCOCC5)C4)cc3)C2)CC1` [Cpd. No. 31, methyl ((1S,2R)-2-((R)-2-(azetidin-1-yl)-1-(3-fluorophenyl)-1-(1-((1-(4-((1-((E)-4-morpholinobut-2-enoyl)azetidin-3-yl)sulfonyl)phenyl)azetidin-3-yl)methyl)piperidin-4-yl)ethyl)cyclopentyl)carbamate]: 88 nM.
As to `C=CC(=O)Nc1cccc(S(=O)(=O)c2ccc(N3CC(CN4CCC([C@@](CN5CCC5)(c5cccc(F)c5)[C@H]5CCC[C@@H]5NC(=O)OC)CC4)C3)cc2)c1` [Cpd. No. 32, methyl ((1S,2R)-2-((S)-1-(1-((1-(4-((3-acrylamidophenyl)sulfonyl)phenyl)azetidin-3-yl)methyl)piperidin-4-yl)-2-(azetidin-1-yl)-1-(3-fluorophenyl)ethyl)cyclopentyl)carbamate], the IC50 was 2 nM.
To `C=CC(=O)N1CCCC[C@H](S(=O)(=O)c2ccc(N3CC(CN4CCC([C@@](CN5CCC5)(c5cccc(F)c5)[C@H]5CCC[C@@H]5NC(=O)OC)CC4)(OC)C3)cc2)C1` [compound 234] belongs 4 nM.
In the case of `C=CC(=O)N1CCCC[C@H](S(=O)(=O)c2ccc(N3CC(CN4CCC([C@@](CN5CCC5)(c5cccc(F)c5)[C@H]5CCC[C@@H]5NC(=O)OC)CC4)(OC)C3)c(F)c2)C1` [compound 235], the IC50 was 4 nM.
Consider `C=CC(=O)N1CCCC[C@H](S(=O)(=O)c2ccc(N3CC(F)(CN4CCC([C@@](CN5CCC5)(c5cccc(F)c5)[C@H]5CCC[C@@H]5NC(=O)OC)CC4)C3)cc2)C1` [compound 236], for which the IC50 came to 4 nM.
`C=CC(=O)N1CCCC[C@H](S(=O)(=O)c2ccc(N3CC(F)(CN4CCC([C@@](CN5CCC5)(c5cccc(F)c5)[C@H]5CCC[C@@H]5NC(=O)OC)CC4)C3)c(F)c2)C1` [compound 237]: the IC50 was determined as 4 nM.
Consider `C=CC(=O)N1CCN(C(C)=O)[C@H](CS(=O)(=O)c2ccc(N3CC(CN4CCC([C@@](CN5CCC5)(c5cccc(F)c5)[C@H]5CCC[C@@H]5NC(=O)OC)CC4)(OC)C3)cc2)C1` [compound 238], for which the IC50 came to 7 nM.
In the case of `C=CC(=O)N1CCN(C(C)=O)[C@@H](CS(=O)(=O)c2ccc(N3CC(CN4CCC([C@@](CN5CCC5)(c5cccc(F)c5)[C@H]5CCC[C@@H]5NC(=O)OC)CC4)(OC)C3)cc2)C1` [compound 239], the IC50 came out at 6 nM.
Take `C=CC(=O)N1CC2CC1CN2S(=O)(=O)c1ccc(N2CC(CN3CCC([C@@](CN4CCC4)(c4cccc(F)c4)[C@H]4CCC[C@@H]4NC(=O)OC)CC3)(OC)C2)cc1` (some centres unmarked) [compound 240]: the IC50 turned out to be 4 nM.
In the case of `C=CC(=O)N1CCN(C(C)=O)CC(S(=O)(=O)c2ccc(N3CC(CN4CCC([C@@](CN5CCC5)(c5cccc(F)c5)[C@H]5CCC[C@@H]5NC(=O)OC)CC4)(OC)C3)cc2)C1` (some centres unmarked) [compound 241], the IC50 was 10 nM.
With `C=CC(=O)N1CCN(C(=O)OC)CC(S(=O)(=O)c2ccc(N3CC(CN4CCC([C@@](CN5CCC5)(c5cccc(F)c5)[C@H]5CCC[C@@H]5NC(=O)OC)CC4)(OC)C3)cc2)C1` (some centres unmarked) [compound 242], the IC50 came out at 10 nM.
